# Measured values as given in patent publication US10143700B2, “Nanoparticle formulations for delivering multiple therapeutic agents” (Amrita Vishwa Vidyapeetham University, priority 2013, dated 2018).
# Assays:
# TfR = assay: Transferrin receptor expression in HepG2 cells by flow cytometry; assay type: cell-based
# Method: Transferrin receptor expression and cellular uptake: In the next step, the expression of TfR in HepG2 cells was studied using flow cytometry. […] After creating an iron deficient microenvironment by treating the cells with 100 μM DFO, the number of the TfR-expressing cells increased to ˜89% (FIG. 13C). […] Following that, intracellular uptake of the core-shell nanoparticles in cancer cells was investigated. […] After creating iron-deficient microenvironment, the uptake was further increased to ˜94% (FIG. 13G) due to the increase in the number of TfRexpressing cells. Upon addition of iron-loaded transferrin, the uptake was dropped to ˜69% due to the saturation of TfR expression in these cells (FIG. 13H).
# HepG2 cells = assay: Annexin V/PI apoptosis assay (confocal imaging and flow cytometry); assay type: cell-based; conditions: for apoptosis (apoptotic cells by flow cytometry): 5 μM sorafenib and/or 0.5 μM Dox
# Method: Apoptosis studies: In the next step, the mode of cell death using Annexin V/PI apoptosis assay was investigated. […] The apoptotic cells using flow cytometry were also quantified. […] Even after combining both the drugs (5 μM sorafenib (5S) with 0.5 μM Dox (0.5D)), a maximum of only ˜60% apoptosis was registered (FIG. 15D). In contrast, as separate nanoformulations, the nano-shell (containing 5 μM sorafenib, (5AST)) (FIG. 15F), and the nano-core (containing 0.5 μM Dox, (0.5PD)) (FIG. 15G) have shown slight improvement in apoptosis (˜39% by shell, and ˜61% by core). After combining the two in a core-shell targeted fashion, excellent apoptosis was registered in ˜91% cells (FIG. 15H).
compound,measurement,setting,value
CC(=O)N(O)CCCCCNC(=O)CCC(=O)N(O)CCCCCNC(=O)CCC(=O)N(O)CCCCCN [DFO],number of TfR-expressing cells,"TfR; HepG2 cells treated with 100 μM DFO (iron deficient microenvironment), ~76% before iron chelation",~89%
same,viability of TfR overexpressing cells,"HepG2 cells; pretreatment with 100 μM DFO, FIG. 15E",did not affect the viability
"COc1cccc2c1C(=O)c1c(O)c3c(c(O)c1C2=O)C[C@@](O)(C(=O)CO)C[C@@H]3O[C@H]1C[C@H](N)[C@H](O)[C@H](C)O1 [Dox, doxorubicin]",apoptosis (apoptotic cells by flow cytometry),HepG2 cells,~53%
CNC(=O)c1cc(Oc2ccc(NC(=O)Nc3ccc(Cl)c(C(F)(F)F)c3)cc2)ccn1 [sorafenib],apoptosis (apoptotic cells by flow cytometry),HepG2 cells,~38%
holotransferrin: iron-loaded transferrin,number of TfR-expressing cells,"TfR; HepG2 cells, upon addition of iron-loaded transferrin (holotransferrin)",~42%
